Consider one molecule from PMC6327044, “A chemical biology screen identifies a vulnerability of neuroendocrine cancer cells to SQLE inhibition” (Nature Communications, 2019).

Structures are written as SMILES.

Holding throughout (assay): cells
Holding throughout (design): species or system panel of 482 human cancer cell lines; ATPLite luminescence growth inhibition after treatment, nine-point dilution curve, 482 cancer cell lines, 384-well
Settings in all cases: 72 h, recommended growth medium

The test system of one experiment is GSS_STOMACH. The procedure: (§1) Cells were seeded in recommended growth media in black 384-well tissue culture treated plates at 500 cells per well. Cells were equilibrated in assay plates via centrifugation and placed in incubators for 24 h before treatment. […] Treated assay plates were incubated with compounds for 72 h and subsequently were developed for endpoint analysis using ATPLite. Each compound was assessed using a nine-point dilution curve. Cells were defined as sensitive to a given compound based on GI75 < 2 μM with manual quality control of curve fit. GI75 is defined as a drug concentration that causes a 75% reduction in assay readout relative to dimethyl sulfoxide (DMSO)-treated controls. To identify novel cancer vulnerabilities, we screened a panel of 482 cell lines with a diverse set of metabolic inhibitors. […] Given that SCLC is thought to arise from neuroendocrine cells in the lung[9], we tested the NB-598 sensitivity in a panel of 42 SCLC cell lines. We calculated a quantitative metric of sensitivity for each cell line based on the area under the curve (AUC) of the mu/mu.max curve to more accurately capture the potency and extent of NB-598 effects. […] We categorized the SCLC cell lines as sensitive (5/42), moderate (11/42), and insensitive (26/42) (Fig. 1c and Supplementary Data 2) and focused all subsequent efforts on this indication. […] To further understand the patterns of sensitivity, we conducted RNA sequencing (RNA-Seq; Supplementary Data 3) and proteomic (Supplementary Data 4) characterization of the SCLC panel to identify unbiased expression signatures associated with enhanced NB-598 response (Supplementary Fig. 1 and Supplementary Fig. 2). Given the growing understanding that SCLC tumors can be further subdivided based on the status of lineage-defining transcription factors, ASLC1 and NEUROD1, we specifically investigated NB-598 response as the function of ASCL1 and NEUROD1 expression levels. […] To further dissect the NB-598 response within the ASCL1-high/NEUROD-low subset of 25 cell lines, we identified RNA-Seq and proteomics expression signatures associated with NB

For the next experiment, the system named is SNU308_BILIARY_TRACT. The procedure:
as §1

In a further experiment the test system is AU565_BREAST. As to the method: as §1
For the next experiment, the system named is SNU16_STOMACH. As to the method: as §1
A further experiment concerns NCIN87_STOMACH. The procedure: as §1
Experiment [1] has as its system SUDHL2EPST_HAEMATOPOIETIC_AND_LYMPHOID_TISSUE. The procedure: as §1
The test system of the next experiment is KYSE520_OESOPHAGUS
As to the method: as §1

For experiment [2], the system named is KMS20_HAEMATOPOIETIC_AND_LYMPHOID_TISSUE. As to the method:
as §1

For experiment [3], the system named is OCILY8_HAEMATOPOIETIC_AND_LYMPHOID_TISSUE. As to the method:
as §1

The test system of another experiment is MKN45_STOMACH. The procedure:
as §1

Experiment [4] concerns MINO_HAEMATOPOIETIC_AND_LYMPHOID_TISSUE. The procedure:
as §1

The subject of the next experiment is OAW28_OVARY. As to the method:
as §1

Another experiment concerns NCIH2122_LUNG. As to the method: as §1
A further experiment deals with HCC1500_BREAST. The procedure: as §1
Another experiment deals with TGBC11TKB_STOMACH. The procedure: as §1
The next experiment has as its system TE14_OESOPHAGUS
The procedure: as §1

A further experiment has as its system NCIH2171_LUNG. As to the method: as §1

For the molecule `CCN(C/C=C/C#CC(C)(C)C)Cc1cccc(OCc2cc(-c3ccsc3)cs2)c1` [NB-598], the GI50 came to 12.3 µM in the experiment with GSS_STOMACH; 2.92 µM with SNU308_BILIARY_TRACT; 399 µM in the experiment on AU565_BREAST; 0.0273 µM in the experiment on SNU16_STOMACH; 9.65 µM with NCIN87_STOMACH; 0.0257 µM in experiment [1]. For the same molecule, the GI50 in the experiment with KYSE520_OESOPHAGUS was 45.5 µM; in [2], 6.54 µM; in experiment [3], 9.19 µM; in the experiment on MKN45_STOMACH, 0.605 µM; in experiment [4], 33.4 µM; with OAW28_OVARY, 65.4 µM. Also, the GI50 with NCIH2122_LUNG stood at 7.51 µM; in the experiment with HCC1500_BREAST, 1.48 µM; with TGBC11TKB_STOMACH, 2.98 µM; with TE14_OESOPHAGUS it was 164 µM; in the experiment with NCIH2171_LUNG, 2.27 µM.
